# Experimental data published in ChEMBL document CHEMBL1154669, “5-Aryl indanones and derivatives as non-steroidal progesterone receptor modulators” (Bioorg Med Chem Lett, 2009).
# Assays:
# Progesterone receptor [1] = biological target: T1, Progesterone receptor (Homo sapiens, UniProt P06401); assay: Inhibition of progesterone receptor in human T47D cells assessed as progesteron-induced alkaline phosphatase activity; format: cell-based
# T1 sequence (P06401 whole entry): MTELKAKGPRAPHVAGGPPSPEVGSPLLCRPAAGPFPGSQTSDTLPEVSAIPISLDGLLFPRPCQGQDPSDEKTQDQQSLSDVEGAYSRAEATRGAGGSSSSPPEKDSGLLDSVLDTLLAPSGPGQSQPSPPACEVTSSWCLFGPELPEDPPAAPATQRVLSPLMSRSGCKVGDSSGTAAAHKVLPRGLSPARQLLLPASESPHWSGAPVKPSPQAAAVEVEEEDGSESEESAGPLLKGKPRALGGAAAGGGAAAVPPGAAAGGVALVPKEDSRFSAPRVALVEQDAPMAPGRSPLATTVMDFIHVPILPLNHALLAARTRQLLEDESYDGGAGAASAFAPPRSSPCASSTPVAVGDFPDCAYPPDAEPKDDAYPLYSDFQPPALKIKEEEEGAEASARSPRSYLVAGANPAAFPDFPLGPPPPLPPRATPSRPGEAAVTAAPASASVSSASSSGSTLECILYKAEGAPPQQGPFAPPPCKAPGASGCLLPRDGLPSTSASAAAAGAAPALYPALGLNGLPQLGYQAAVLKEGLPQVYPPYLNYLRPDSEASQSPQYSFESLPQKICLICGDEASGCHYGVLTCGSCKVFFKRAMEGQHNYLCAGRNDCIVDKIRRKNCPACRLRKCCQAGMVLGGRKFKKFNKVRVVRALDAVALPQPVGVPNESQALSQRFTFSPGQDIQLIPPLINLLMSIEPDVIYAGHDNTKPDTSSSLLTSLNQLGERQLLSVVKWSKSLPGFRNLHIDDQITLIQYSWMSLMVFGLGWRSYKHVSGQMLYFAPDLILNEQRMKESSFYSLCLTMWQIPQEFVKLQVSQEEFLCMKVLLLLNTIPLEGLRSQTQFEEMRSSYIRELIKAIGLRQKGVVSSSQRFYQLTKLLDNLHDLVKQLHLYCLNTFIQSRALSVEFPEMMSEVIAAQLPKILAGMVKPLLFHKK
# Progesterone receptor [2] = biological target: T1, Progesterone receptor; assay: Agonist activity at progesterone receptor in human T47D cells assessed as alkaline phosphatase activity; format: functional, cell-based
IC50 (Progesterone receptor [1]),EC50 (Progesterone receptor [2]),SMILES
316 nM,,Cc1cccc(-c2ccc3c(c2)C(C)(C)C/C3=N\O)c1
317 nM,,CC1(C)C/C(=N\O)c2ccc(-c3cccc(C#N)c3)cc21
65 nM,> 3000 nM,CC1C/C(=N/O)c2ccc(-c3ccc(C#N)n3C)cc21 (configuration not stated)
34 nM,> 3000 nM,Cn1c(C#N)ccc1-c1ccc2c(c1)CCC2=O
3 nM,> 3000 nM,C#CCC1(O)CC(C)(C)c2cc(-c3ccc(C#N)n3C)ccc21 (configuration not stated)
132 nM,> 3000 nM,Cn1c(C#N)ccc1-c1ccc2c(c1)CC/C2=N/O
18 nM,> 3000 nM,CC1CC(O)c2ccc(-c3ccc(C#N)n3C)cc21 (configuration not stated)
,1 nM,Cn1c(C#N)ccc1-c1ccc2c(c1)C(C)(C)CC2(C)O (configuration not stated)
,19 nM,Cn1c(C#N)ccc1-c1ccc2c(c1)C(C)(C)CC2O (configuration not stated)
195 nM,,CC1(C)CC(=O)c2ccc(-c3cccc(C#N)c3)cc21
490 nM,,CC1(C)C/C(=N\O)c2ccc(-c3cccc(Cl)c3)cc21
79 nM,,CC1(C)CC(=O)c2ccc(-c3ccc(Cl)c(Cl)c3)cc21
10 nM,> 3000 nM,Cn1c(C#N)ccc1-c1ccc2c(c1)CCC2O (configuration not stated)
14 nM,> 3000 nM,Cn1c(C#N)ccc1-c1ccc2c(c1)C(C)(C)C/C2=N/O
,2 nM,CCC1(O)CC(C)(C)c2cc(-c3ccc(C#N)n3C)ccc21 (configuration not stated)
